# Data from publication PMC6540285, “Evaluation of Protein Kinase Inhibitors with PLK4 Cross-Over Potential in a Pre-Clinical Model of Cancer” (International Journal of Molecular Sciences, 2019).
# Legend:
# CAMKK2 (CaMKK beta) = CAMKK2 (CaMKK beta) (Homo sapiens, UniProt Q96RR4); test: SelectScreen kinase profiling, LanthaScreen binding
# CDC42 BPA (MRCKA) = CDC42 BPA (MRCKA) (Homo sapiens, UniProt Q5VT25); test: SelectScreen kinase profiling, ZLYTE; assay type: biochemical
# P450 2B6 = P450 2B6 (Homo sapiens, UniProt P20813)
# NEK4 = NEK4 (Homo sapiens, UniProt P51957); test: SelectScreen kinase profiling, ZLYTE; assay type: biochemical; details: NEK4, 10 µM
# RET S891A = RET S891A (Homo sapiens, UniProt P07949, S891A); test: SelectScreen kinase profiling, ZLYTE; assay type: biochemical
# DNA-PK = DNA-PK (Homo sapiens, UniProt P78527); test: SelectScreen kinase profiling, ZLYTE; assay type: biochemical
# [1] = target: PIK3CA E542K/PIK3R1 (p110 alpha E542K/p85 alpha) (Homo sapiens, UniProt P42336, E542K); test: SelectScreen kinase profiling, Adapta; assay type: biochemical; details: PIK3CA E542K/PIK3R1, 10 µM
# [2] = target: PIK3CA/PIK3R3 (p110 alpha/p55 gamma) (Homo sapiens, UniProt P42336); test: SelectScreen kinase profiling, Adapta; assay type: biochemical; details: PIK3CA/PIK3R3, 10 µM
# AMPK A1/B1/G1 = AMPK A1/B1/G1 (Homo sapiens, UniProt Q13131); test: SelectScreen kinase profiling, ZLYTE; assay type: biochemical; details: AMPK A1/B1/G1, 10 µM
# SIK1 = SIK1 (Homo sapiens, UniProt P57059); test: SelectScreen kinase profiling, LanthaScreen binding; details: SIK1, 10 µM
# Chain of SIK1 (P57059 whole entry): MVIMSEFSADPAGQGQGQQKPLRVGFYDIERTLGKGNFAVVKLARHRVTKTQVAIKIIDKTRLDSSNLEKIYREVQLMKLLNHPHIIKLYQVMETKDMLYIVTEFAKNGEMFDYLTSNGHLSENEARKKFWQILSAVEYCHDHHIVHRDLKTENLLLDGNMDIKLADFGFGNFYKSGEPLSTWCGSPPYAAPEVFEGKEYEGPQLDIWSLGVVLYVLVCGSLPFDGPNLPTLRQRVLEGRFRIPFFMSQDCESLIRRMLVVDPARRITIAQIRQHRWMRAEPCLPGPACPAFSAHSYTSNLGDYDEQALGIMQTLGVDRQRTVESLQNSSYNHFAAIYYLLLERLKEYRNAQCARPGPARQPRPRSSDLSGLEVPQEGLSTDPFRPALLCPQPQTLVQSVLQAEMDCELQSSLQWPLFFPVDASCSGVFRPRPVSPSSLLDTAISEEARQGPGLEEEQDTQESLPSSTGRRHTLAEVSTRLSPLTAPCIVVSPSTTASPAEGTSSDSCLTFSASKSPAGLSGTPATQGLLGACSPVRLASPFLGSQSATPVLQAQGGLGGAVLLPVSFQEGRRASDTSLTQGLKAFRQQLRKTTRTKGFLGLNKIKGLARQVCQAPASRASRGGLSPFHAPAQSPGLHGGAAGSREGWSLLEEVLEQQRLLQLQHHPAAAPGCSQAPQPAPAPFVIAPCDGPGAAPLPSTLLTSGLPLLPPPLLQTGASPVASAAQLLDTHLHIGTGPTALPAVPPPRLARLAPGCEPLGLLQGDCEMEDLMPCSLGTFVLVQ
# PRKCZ (PKC zeta) = PRKCZ (PKC zeta) (Homo sapiens, UniProt Q05513); test: SelectScreen kinase profiling, ZLYTE; assay type: biochemical
# MET M1250T = MET M1250T (Homo sapiens, UniProt P08581, M1250T); test: SelectScreen kinase profiling, ZLYTE; assay type: biochemical
# MKNK2 (MNK2) = MKNK2 (MNK2) (Homo sapiens, UniProt Q9HBH9); test: SelectScreen kinase profiling, LanthaScreen binding
# PIP5K1A = PIP5K1A (Homo sapiens, UniProt Q99755); test: SelectScreen kinase profiling, Adapta; assay type: biochemical
# CDK5/p25 = CDK5/p25 (Homo sapiens, UniProt Q00535); test: SelectScreen kinase profiling, ZLYTE; assay type: biochemical; details: CDK5/p25, 10 µM
# LATS2 = LATS2 (Homo sapiens, UniProt Q9NRM7); test: SelectScreen kinase profiling, LanthaScreen binding; details: LATS2, 10 µM
# RPS6KB2 (p70S6Kb) = RPS6KB2 (p70S6Kb) (Homo sapiens, UniProt Q9UBS0); test: SelectScreen kinase profiling, ZLYTE; assay type: biochemical
# JAK2 JH1 JH2 = target: T1, JAK2 JH1 JH2 (Homo sapiens, UniProt O60674); test: SelectScreen kinase profiling, ZLYTE; assay type: biochemical; details: JAK2 JH1 JH2, 10 µM
# T1 construct: JAK2 JH1 JH2
# T1 sequence (O60674 532-1132 limits assumed): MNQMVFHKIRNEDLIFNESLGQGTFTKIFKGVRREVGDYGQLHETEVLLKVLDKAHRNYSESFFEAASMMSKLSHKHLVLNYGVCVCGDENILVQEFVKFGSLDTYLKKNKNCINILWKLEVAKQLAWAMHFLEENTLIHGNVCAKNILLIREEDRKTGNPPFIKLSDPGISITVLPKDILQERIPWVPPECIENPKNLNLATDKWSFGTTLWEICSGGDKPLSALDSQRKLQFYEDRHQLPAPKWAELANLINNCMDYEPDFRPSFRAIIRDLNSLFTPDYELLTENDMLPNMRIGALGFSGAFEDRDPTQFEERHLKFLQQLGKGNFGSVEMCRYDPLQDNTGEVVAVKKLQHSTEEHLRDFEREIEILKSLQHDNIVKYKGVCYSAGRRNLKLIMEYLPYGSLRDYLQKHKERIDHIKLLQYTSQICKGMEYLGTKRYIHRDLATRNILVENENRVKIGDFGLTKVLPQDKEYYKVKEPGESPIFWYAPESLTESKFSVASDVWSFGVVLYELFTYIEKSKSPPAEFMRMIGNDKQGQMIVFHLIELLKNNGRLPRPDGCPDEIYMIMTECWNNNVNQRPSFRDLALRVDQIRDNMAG
# CYP2D6 = CYP2D6 (Homo sapiens, UniProt P10635)
# MAPK13 (p38 delta) = MAPK13 (p38 delta) (Homo sapiens, UniProt O15264); test: SelectScreen kinase profiling, ZLYTE; assay type: biochemical
# Chain of MAPK13 (p38 delta) (O15264 whole entry): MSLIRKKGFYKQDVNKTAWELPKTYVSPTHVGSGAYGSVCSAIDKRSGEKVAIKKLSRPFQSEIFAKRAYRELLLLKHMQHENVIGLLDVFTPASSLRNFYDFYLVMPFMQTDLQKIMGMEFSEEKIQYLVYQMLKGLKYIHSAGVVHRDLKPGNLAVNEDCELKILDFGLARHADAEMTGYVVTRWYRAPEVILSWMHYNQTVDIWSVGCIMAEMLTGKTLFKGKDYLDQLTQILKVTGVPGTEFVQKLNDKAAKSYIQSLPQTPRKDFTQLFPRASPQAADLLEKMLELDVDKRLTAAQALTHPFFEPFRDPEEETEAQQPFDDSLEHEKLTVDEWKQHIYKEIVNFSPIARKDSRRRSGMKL
# EPHB1 = EPHB1 (Homo sapiens, UniProt P54762); test: SelectScreen kinase profiling, ZLYTE; assay type: biochemical; details: EPHB1, 10 µM
# INSR = INSR (Homo sapiens, UniProt P06213); test: SelectScreen kinase profiling, ZLYTE; assay type: biochemical
# From the text: (§1) Kinase Technology % Inhibition Avg Kinase Technology % Inhibition Avg
# (§2) STK23 (MSSK1) ZLYTE 59 TGFBR1 (ALK5) LanthaScreen 85
# (§3) STK24 (MST3) ZLYTE 85 TGFBR2 LanthaScreen 77
# (§4) STK25 (YSK1) ZLYTE 45 TLK1 LanthaScreen 4
# (§5) STK3 (MST2) ZLYTE 77 TLK2 LanthaScreen 33
# (§6) STK32B (YANK2) LanthaScreen 61 TNIK LanthaScreen 15
# (§7) STK32C (YANK3) LanthaScreen 62 TNK1 ZLYTE 94
# (§8) STK33 LanthaScreen 81 TNK2 (ACK) LanthaScreen 71
# (§9) STK38 (NDR) LanthaScreen 85 TTK LanthaScreen 54
# (§10) STK38L (NDR2) LanthaScreen 59 TXK ZLYTE 94
# (§11) STK39 (STLK3) LanthaScreen 38 TYK2 ZLYTE 99
# (§12) STK4 (MST1) ZLYTE 93 TYRO3 (RSE) ZLYTE 92
# (§13) SYK ZLYTE 98 ULK1 LanthaScreen 80
# (§14) TAOK1 LanthaScreen 82 ULK2 LanthaScreen 56
# (§15) TAOK2 (TAO1) ZLYTE 87 ULK3 LanthaScreen 5
# (§16) TAOK3 (JIK) LanthaScreen 25 VRK2 LanthaScreen 32
# (§17) TBK1 ZLYTE 99 WEE1 LanthaScreen 75
# (§18) TEC LanthaScreen -9 WNK1 LanthaScreen 2
# (§19) TEK (Tie2) ZLYTE 99 WNK2 LanthaScreen 1
# (§20) TEK (TIE2) R849W LanthaScreen -5 WNK3 LanthaScreen 7
# (§21) TEK (TIE2) Y897S ZLYTE 80 ZAK LanthaScreen 77
# (§22) TESK1 LanthaScreen 37 ZAP70 ZLYTE 24
# (§23) cleavage (Thermo Fisher Scientific, USA)
# PLK2 = PLK2 (Homo sapiens, UniProt Q9NYY3); test: SelectScreen kinase profiling, ZLYTE; assay type: biochemical; details: PLK2, 10 µM
# From the text: as §1, §2, §3, §4, §5, §6, §7, §8, §9, §10, §11, §12, §13, §14, §15, §16, §17, §18, §19, §20, §21, §22, §23
# INSRR (IRR) = INSRR (IRR) (Homo sapiens, UniProt P14616); test: SelectScreen kinase profiling, ZLYTE; assay type: biochemical
# From the text: as §1, §2, §3, §4, §5, §6, §7, §8, §9, §10, §11, §12, §13, §14, §15, §16, §17, §18, §19, §20, §21, §22, §23
# NEK6 = NEK6 (Homo sapiens, UniProt Q9HC98); test: SelectScreen kinase profiling, ZLYTE; assay type: biochemical; details: NEK6, 10 µM
# Chain of NEK6 (Q9HC98 whole entry): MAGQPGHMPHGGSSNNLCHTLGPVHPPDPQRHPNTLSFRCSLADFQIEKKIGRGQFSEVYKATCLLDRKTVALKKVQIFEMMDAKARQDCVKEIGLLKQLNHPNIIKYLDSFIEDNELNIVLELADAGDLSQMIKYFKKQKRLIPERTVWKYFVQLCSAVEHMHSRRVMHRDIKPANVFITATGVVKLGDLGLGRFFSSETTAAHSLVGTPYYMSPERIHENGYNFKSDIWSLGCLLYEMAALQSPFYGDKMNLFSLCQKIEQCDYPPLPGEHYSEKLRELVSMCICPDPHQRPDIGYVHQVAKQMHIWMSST
# From the text: as §1, §2, §3, §4, §5, §6, §7, §8, §9, §10, §11, §12, §13, §14, §15, §16, §17, §18, §19, §20, §21, §22, §23
# PAK7 (KIAA1264) = PAK7 (KIAA1264) (Homo sapiens, UniProt Q9P286); test: SelectScreen kinase profiling, ZLYTE; assay type: biochemical
# Chain of PAK7 (KIAA1264) (Q9P286 whole entry): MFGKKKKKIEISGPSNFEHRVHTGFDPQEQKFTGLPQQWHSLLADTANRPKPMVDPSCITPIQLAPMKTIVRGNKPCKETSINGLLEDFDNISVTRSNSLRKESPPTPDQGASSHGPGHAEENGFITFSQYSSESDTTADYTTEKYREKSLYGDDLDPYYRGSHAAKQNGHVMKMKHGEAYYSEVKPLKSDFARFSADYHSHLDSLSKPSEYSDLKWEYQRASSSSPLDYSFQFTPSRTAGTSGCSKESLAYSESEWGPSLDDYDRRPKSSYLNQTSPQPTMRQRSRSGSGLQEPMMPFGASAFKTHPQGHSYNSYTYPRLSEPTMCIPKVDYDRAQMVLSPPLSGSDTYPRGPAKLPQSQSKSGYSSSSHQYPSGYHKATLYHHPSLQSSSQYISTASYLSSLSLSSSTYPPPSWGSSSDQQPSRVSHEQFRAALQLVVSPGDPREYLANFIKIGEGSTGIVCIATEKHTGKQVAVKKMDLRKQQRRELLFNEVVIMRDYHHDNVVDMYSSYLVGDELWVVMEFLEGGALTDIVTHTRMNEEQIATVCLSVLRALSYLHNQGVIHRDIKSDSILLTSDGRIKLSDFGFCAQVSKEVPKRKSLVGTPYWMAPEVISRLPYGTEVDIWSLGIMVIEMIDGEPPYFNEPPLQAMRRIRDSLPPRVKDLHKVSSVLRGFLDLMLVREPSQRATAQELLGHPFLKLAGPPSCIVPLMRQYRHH
# From the text: as §1, §2, §3, §4, §5, §6, §7, §8, §9, §10, §11, §12, §13, §14, §15, §16, §17, §18, §19, §20, §21, §22, §23
# BTK = BTK (Homo sapiens, UniProt Q06187); test: SelectScreen kinase profiling, ZLYTE; assay type: biochemical
# From the text: as §1, §2, §3, §4, §5, §6, §7, §8, §9, §10, §11, §12, §13, §14, §15, §16, §17, §18, §19, §20, §21, §22, §23
# PKN1 (PRK1) = PKN1 (PRK1) (Homo sapiens, UniProt Q16512); test: SelectScreen kinase profiling, ZLYTE; assay type: biochemical
# From the text: as §1, §2, §3, §4, §5, §6, §7, §8, §9, §10, §11, §12, §13, §14, §15, §16, §17, §18, §19, §20, §21, §22, §23
# MST1R (RON) = MST1R (RON) (Homo sapiens, UniProt Q04912); test: SelectScreen kinase profiling, ZLYTE; assay type: biochemical
# Chain of MST1R (RON) (Q04912 25-1400): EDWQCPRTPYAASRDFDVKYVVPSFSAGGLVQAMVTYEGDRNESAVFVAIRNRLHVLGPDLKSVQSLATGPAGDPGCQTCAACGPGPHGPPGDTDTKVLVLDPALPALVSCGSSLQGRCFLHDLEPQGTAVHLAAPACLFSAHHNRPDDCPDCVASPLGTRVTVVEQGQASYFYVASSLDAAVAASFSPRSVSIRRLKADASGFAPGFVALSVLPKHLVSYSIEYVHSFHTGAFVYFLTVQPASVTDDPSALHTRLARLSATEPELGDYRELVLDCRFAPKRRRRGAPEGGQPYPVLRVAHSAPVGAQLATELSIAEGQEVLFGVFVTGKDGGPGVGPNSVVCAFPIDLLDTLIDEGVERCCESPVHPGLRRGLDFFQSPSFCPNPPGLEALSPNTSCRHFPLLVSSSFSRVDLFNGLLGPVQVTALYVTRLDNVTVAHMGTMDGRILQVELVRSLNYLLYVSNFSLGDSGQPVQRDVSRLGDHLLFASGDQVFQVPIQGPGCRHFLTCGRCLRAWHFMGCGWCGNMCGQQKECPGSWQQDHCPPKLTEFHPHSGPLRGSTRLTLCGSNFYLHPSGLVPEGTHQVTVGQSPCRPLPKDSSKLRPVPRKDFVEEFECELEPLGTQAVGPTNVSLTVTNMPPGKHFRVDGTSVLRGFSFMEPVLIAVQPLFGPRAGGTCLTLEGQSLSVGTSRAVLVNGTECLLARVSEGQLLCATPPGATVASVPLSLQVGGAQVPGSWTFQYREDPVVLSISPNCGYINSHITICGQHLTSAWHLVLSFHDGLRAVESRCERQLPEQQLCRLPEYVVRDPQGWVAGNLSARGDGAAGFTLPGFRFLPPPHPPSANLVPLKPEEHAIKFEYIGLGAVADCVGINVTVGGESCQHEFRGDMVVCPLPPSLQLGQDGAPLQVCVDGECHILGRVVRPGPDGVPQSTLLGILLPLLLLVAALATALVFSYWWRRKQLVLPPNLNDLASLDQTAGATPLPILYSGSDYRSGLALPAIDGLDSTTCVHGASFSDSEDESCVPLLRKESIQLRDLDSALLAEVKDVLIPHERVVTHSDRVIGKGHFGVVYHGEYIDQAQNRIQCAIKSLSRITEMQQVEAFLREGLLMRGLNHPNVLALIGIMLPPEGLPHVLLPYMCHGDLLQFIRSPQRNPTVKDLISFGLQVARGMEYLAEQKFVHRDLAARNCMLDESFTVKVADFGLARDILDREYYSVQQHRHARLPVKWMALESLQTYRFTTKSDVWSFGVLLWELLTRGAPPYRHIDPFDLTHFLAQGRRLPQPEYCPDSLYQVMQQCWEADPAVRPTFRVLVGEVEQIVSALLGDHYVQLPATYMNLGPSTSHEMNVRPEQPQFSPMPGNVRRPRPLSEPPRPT
# From the text: as §1, §2, §3, §4, §5, §6, §7, §8, §9, §10, §11, §12, §13, §14, §15, §16, §17, §18, §19, §20, §21, §22, §23
# MASTL = MASTL (Homo sapiens, UniProt Q96GX5); test: SelectScreen kinase profiling, LanthaScreen binding
# Chain of MASTL (Q96GX5 whole entry): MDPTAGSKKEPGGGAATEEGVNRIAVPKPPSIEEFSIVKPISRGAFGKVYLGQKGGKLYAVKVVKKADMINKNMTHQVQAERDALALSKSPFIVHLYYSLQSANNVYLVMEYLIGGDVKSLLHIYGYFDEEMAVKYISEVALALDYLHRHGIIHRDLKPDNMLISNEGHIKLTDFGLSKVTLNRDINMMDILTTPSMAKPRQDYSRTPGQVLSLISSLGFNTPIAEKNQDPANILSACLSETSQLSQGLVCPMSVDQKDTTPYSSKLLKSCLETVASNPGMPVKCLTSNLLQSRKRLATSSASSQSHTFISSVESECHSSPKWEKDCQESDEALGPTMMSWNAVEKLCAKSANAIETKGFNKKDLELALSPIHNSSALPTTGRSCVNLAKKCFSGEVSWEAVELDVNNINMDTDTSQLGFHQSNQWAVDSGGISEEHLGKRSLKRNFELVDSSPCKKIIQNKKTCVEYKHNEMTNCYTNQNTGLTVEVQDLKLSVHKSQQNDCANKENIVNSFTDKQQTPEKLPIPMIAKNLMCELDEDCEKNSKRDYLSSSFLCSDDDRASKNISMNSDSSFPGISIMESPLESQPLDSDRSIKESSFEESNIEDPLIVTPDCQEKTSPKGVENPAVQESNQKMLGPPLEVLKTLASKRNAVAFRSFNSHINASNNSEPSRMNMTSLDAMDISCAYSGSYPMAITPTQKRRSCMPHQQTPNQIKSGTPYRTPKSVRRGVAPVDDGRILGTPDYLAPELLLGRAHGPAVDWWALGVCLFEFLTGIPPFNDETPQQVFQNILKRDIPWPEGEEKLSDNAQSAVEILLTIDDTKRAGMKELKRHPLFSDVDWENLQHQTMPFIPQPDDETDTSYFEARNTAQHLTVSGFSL
smiles,measurement,setting,value
O=C(c1ccc(/C=C/c2n[nH]c3ccccc23)cc1)N1CCNCC1 [KW-2449],inhibition at 10 µM,CAMKK2 (CaMKK beta),86%
same,inhibition at 10 µM,CDC42 BPA (MRCKA),32%
same,IC50,P450 2B6,9.8 µM
same,inhibition at 10 µM,NEK4,96%
same,inhibition at 10 µM,RET S891A,97%
same,inhibition at 10 µM,DNA-PK,24%
same,inhibition at 10 µM,[1],13%
same,inhibition at 10 µM,[2],4%
same,inhibition at 10 µM,AMPK A1/B1/G1,97%
same,inhibition at 10 µM,SIK1,82%
same,inhibition at 10 µM,PRKCZ (PKC zeta),9%
same,inhibition at 10 µM,MET M1250T,96%
same,inhibition at 10 µM,MKNK2 (MNK2),68%
same,inhibition at 10 µM,PIP5K1A,16%
same,inhibition at 10 µM,CDK5/p25,97%
same,inhibition at 10 µM,LATS2,68%
same,inhibition at 10 µM,RPS6KB2 (p70S6Kb),37%
same,inhibition at 10 µM,JAK2 JH1 JH2,96%
same,IC50,CYP2D6,> 10 µM
same,inhibition at 10 µM,MAPK13 (p38 delta),30%
same,inhibition at 10 µM,EPHB1,97%
same,inhibition at 10 µM,INSR,96%
same,inhibition at 10 µM,PLK2,35%
same,inhibition at 10 µM,INSRR (IRR),96%
same,inhibition at 10 µM,NEK6,10%
same,inhibition at 10 µM,PAK7 (KIAA1264),98%
same,inhibition at 10 µM,BTK,99%
same,inhibition at 10 µM,PKN1 (PRK1),72%
same,inhibition at 10 µM,MST1R (RON),97%
same,inhibition at 10 µM,MASTL,83%
